ChEMBL document CHEMBL2203150, “CXCR3 antagonists: quaternary ammonium salts equipped with biphenyl- and polycycloaliphatic-anchors” (Bioorg Med Chem, 2011)

Each compound was assayed against T1, C-X-C chemokine receptor type 3 (Homo sapiens) (UniProt P49682) (assay: Antagonist activity at human CXCR3 expressed in HEK293T cells co-expressing Galphaqi5 assessed as inhibition of CXCL10-induced [3H]-inositolphosphates levels). Conditions: HEK-293T.
T1 sequence (whole entry): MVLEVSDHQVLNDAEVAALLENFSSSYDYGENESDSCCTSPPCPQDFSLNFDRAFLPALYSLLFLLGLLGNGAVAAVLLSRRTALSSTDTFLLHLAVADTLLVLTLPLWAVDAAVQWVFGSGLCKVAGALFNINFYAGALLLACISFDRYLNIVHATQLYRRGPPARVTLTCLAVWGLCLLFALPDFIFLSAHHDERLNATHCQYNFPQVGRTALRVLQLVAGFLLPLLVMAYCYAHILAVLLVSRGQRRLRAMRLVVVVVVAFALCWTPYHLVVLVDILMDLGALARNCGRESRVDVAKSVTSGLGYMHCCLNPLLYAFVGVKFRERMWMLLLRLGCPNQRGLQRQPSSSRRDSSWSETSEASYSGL
Format: functional, cell-based

Structure (SMILES) | pKb | inhibition
CC1(C)[C@H]2CC=C(C[N+](C)(C)Cc3ccc(Cl)cc3)[C@@H]1C2 | 6.3 | –
CCOc1ccc(-n2c([C@@H](C)N(Cc3cccnc3)C(=O)Cc3ccc(OC(F)(F)F)cc3)nc3ncccc3c2=O)cc1 | 8 | Dose-dependent effect
CC1(C)[C@H]2CC=C(C[N+](C)(C)Cc3ccc(-c4ccsc4)cc3)[C@@H]1C2 | 6.4 | –
CC1(C)[C@H]2CC=C(C[N+](C)(C)Cc3ccc(-c4cccc(Cl)c4)cc3)[C@@H]1C2 | 6.3 | –
CC1(C)[C@H]2CC=C(C[N+](C)(C)Cc3ccc(I)cc3)[C@@H]1C2 | 6.6 | –

The compounds below were run against T2, C-X-C chemokine receptor type 3 (Homo sapiens, UniProt P49682) (assay: Displacement of [125I]-CXCL10 from human CXCR3 expressed in HEK293 cells). Conditions: not given.
T2 sequence (P49682 whole entry): T1 sequence (whole entry)
Format: cell-based

Structure (SMILES) | Ki [nM]
C[N+](C)(Cc1ccc(I)cc1)CC12CC3CC(CC(C3)C1)C2 | 2000
CN(CC1=CC[C@H]2C[C@@H]1C2(C)C)Cc1cccc(I)c1 | 7940
CN(CC1=CC[C@H]2C[C@@H]1C2(C)C)Cc1ccc(-c2ccc(Cl)cc2)cc1 | > 316
CN(CC1=CC[C@H]2C[C@@H]1C2(C)C)Cc1ccc(Br)cc1 | 3160
CN(CC1=CC[C@H]2C[C@@H]1C2(C)C)Cc1cccc(-c2ccccc2)c1 | > 316
N=C(Nc1ccc(I)cc1)NC1C2CC3CC(C2)CC1C3 (stereo not drawn) | 3980
CC1(C)[C@H]2CC=C(C[N+](C)(C)Cc3ccccc3)[C@@H]1C2 | 3980
CN(CC1=CC[C@H]2C[C@@H]1C2(C)C)Cc1ccc2c3ccccc3n(C)c2c1 | > 316
CCN(CC1=CC[C@H]2C[C@@H]1C2(C)C)Cc1ccc(I)cc1 | 3980
CC1(C)[C@H]2CC=C(C[N+](C)(C)Cc3ccccc3I)[C@@H]1C2 | 1580
CN(CC1=CC[C@H]2C[C@@H]1C2(C)C)Cc1ccc(-c2ccc(C(F)(F)F)cc2)cc1 | > 316
CN(CC1=CC[C@H]2C[C@@H]1C2(C)C)Cc1ccc(-c2cccc(O)c2)cc1 | > 316
CN(CC1=CC[C@H]2C[C@@H]1C2(C)C)Cc1ccc(I)cc1 | 3160
Cc1cccc(-c2ccc(CN(C)CC3=CC[C@H]4C[C@@H]3C4(C)C)cc2)c1 | > 316
CN(CCC12CC3CC(CC(C3)C1)C2)Cc1ccc(I)cc1 | 5010
CN(CC1=CC[C@H]2C[C@@H]1C2(C)C)Cc1ccc(-c2cc(Cl)cc(Cl)c2)cc1 | > 316
CC1(C)[C@H]2CC=C(C[N+](C)(C)Cc3ccc(F)cc3)[C@@H]1C2 | 1260
CN(CC1=CC[C@H]2C[C@@H]1C2(C)C)Cc1ccc(-c2ccsc2)cc1 | 3980
CC1(C)[C@H]2CC=C(C[N+](C)(C)Cc3ccc(Oc4ccccc4)cc3)[C@@H]1C2 | 2000
CN(CC1=CC[C@H]2C[C@@H]1C2(C)C)Cc1ccc(-c2cccc([N+](=O)[O-])c2)cc1 | 2000
CN(C/C1=C/CCCCCC1)Cc1ccc(I)cc1 (mixture of isomers) | 7940
CC1(C)[C@H]2CC=C(C[N+](C)(C)Cc3cccc(I)c3)[C@@H]1C2 | 2000
CN(CC1=CC[C@H]2C[C@@H]1C2(C)C)Cc1ccc2c(c1)Cc1ccccc1-2 | > 316
CC(=O)c1cccc(-c2ccc(CN(C)CC3=CC[C@H]4C[C@@H]3C4(C)C)cc2)c1 | > 316
CN(CC1=CC[C@H]2C[C@@H]1C2(C)C)Cc1ccc(-c2cccc(F)c2)cc1 | 2510
CN(CC1=CC[C@H]2C[C@@H]1C2(C)C)Cc1ccc(-c2ccoc2)cc1 | 6310

Structure (SMILES) | Ki [nM]
CC1(C)[C@H]2CC=C(C[N+](C)(C)Cc3cccc(-c4ccccc4)c3)[C@@H]1C2 | 3160
CN(CC1=CC[C@H]2C[C@@H]1C2(C)C)Cc1ccc2oc3ccccc3c2c1 | > 316
CN(CC1=CC[C@H]2C[C@@H]1C2(C)C)Cc1ccc(Oc2ccccc2)cc1 | > 316
CC1(C)[C@H]2CC=C(C[N+](C)(C)Cc3ccc(-c4cccc(N)c4)cc3)[C@@H]1C2 | 3160
CN(Cc1ccc(I)cc1)CC1C[C@H]2CC[C@]1(C)C2(C)C (mixture of isomers) | 7940
CN(CC1=CC[C@H]2C[C@@H]1C2(C)C)Cc1ccc(-c2ccccc2)cc1 | 3160
CC1(C)[C@H]2CC=C(C[N+](C)(C)Cc3ccc(-c4cccc(O)c4)cc3)[C@@H]1C2 | 1580
CN(CC1=CC[C@H]2C[C@@H]1C2(C)C)Cc1ccccc1I | 5010
CN(CC1=CC[C@H]2C[C@@H]1C2(C)C)Cc1ccc(F)cc1 | 6310
COC(=O)c1cccc(-c2ccc(CN(C)CC3=CC[C@H]4C[C@@H]3C4(C)C)cc2)c1 | > 316
CN(CC1=CC[C@H]2C[C@@H]1C2(C)C)Cc1ccc(-c2cccc(Cl)c2)cc1 | 3980
CN(Cc1ccc(I)cc1)CC1C2CC3CC(C2)CC1C3 (stereo not drawn) | 7940
CN(CC1=CC[C@H]2C[C@@H]1C2(C)C)Cc1ccccc1 | 15800
CC1(C)[C@H]2CC=C(C[N+]3(C)CCc4ccccc4C3)[C@@H]1C2 (stereo partly drawn) | 2510
CN(CC1=CC[C@H]2C[C@@H]1C2(C)C)Cc1ccc(-c2cccc(N)c2)cc1 | 6310
CC1(C)[C@@H]2CC[C@@]1(C)C(C[N+](C)(C)Cc1ccc(I)cc1)C2 (mixture of isomers) | 1580
CC1(C)[C@H]2CC=C(C[N+](C)(C)Cc3ccc(-c4ccc(C(F)(F)F)cc4)cc3)[C@@H]1C2 | 1260
CN(CCc1ccc(Cl)cc1)CC1=CC[C@H]2C[C@@H]1C2(C)C | 5010
CN(CC1=CC[C@H]2C[C@@H]1C2(C)C)Cc1ccc(-c2ccccc2F)cc1 | > 316
CN(CC1=CC[C@H]2C[C@@H]1C2(C)C)Cc1ccc(Cl)cc1 | 2510
CN(CC1=CC[C@H]2C[C@@H]1C2(C)C)Cc1ccc(-c2cccc(C(F)(F)F)c2)cc1 | > 316
CN(CC1=CC[C@H]2C[C@@H]1C2(C)C)Cc1ccc(Cl)c(Cl)c1 | 3160
COc1ccc(-c2ccc(CN(C)CC3=CC[C@H]4C[C@@H]3C4(C)C)cc2)cc1OC | > 316
Ic1ccc(CNCC2C3CC4CC(C3)CC2C4)cc1 (stereo not drawn) | 2510
CC1(C)[C@H]2CC=C(CN3CCc4ccccc4C3)[C@@H]1C2 | 12600

Second part, the compound after the results:

Ki [nM] | Structure (SMILES)
1000 | Cn1c2ccccc2c2ccc(C[N+](C)(C)CC3=CC[C@H]4C[C@@H]3C4(C)C)cc21
1000 | CC1(C)[C@H]2CC=C(C[N+](C)(C)CCc3ccc(Cl)cc3)[C@@H]1C2
1000 | C[N+](C)(C/C1=C/CCCCCC1)Cc1ccc(I)cc1 (mixture of isomers)
1000 | COC(=O)c1cccc(-c2ccc(C[N+](C)(C)CC3=CC[C@H]4C[C@@H]3C4(C)C)cc2)c1
794 | C[N+](C)(Cc1ccc(I)cc1)CC1C2CC3CC(C2)CC1C3 (stereo not drawn)
631 | CC(=O)c1cccc(-c2ccc(C[N+](C)(C)CC3=CC[C@H]4C[C@@H]3C4(C)C)cc2)c1
631 | C[N+](C)(CCC12CC3CC(CC(C3)C1)C2)Cc1ccc(I)cc1
631 | CC[N+](C)(CC1=CC[C@H]2C[C@@H]1C2(C)C)Cc1ccc(I)cc1 (stereo partly drawn)
631 | CC1(C)[C@H]2CC=C(C[N+](C)(C)Cc3ccc(-c4ccccc4F)cc3)[C@@H]1C2
501 | CC1(C)[C@H]2CC=C(C[N+](C)(C)Cc3ccc(-c4ccc(Cl)cc4)cc3)[C@@H]1C2
501 | CC1(C)[C@H]2CC=C(C[N+](C)(C)Cc3ccc4oc5ccccc5c4c3)[C@@H]1C2
501 | CC1(C)[C@H]2CC=C(C[N+](C)(C)Cc3ccc4c(c3)Cc3ccccc3-4)[C@@H]1C2
501 | CC1(C)[C@H]2CC=C(C[N+](C)(C)Cc3ccc(-c4cccc(C(F)(F)F)c4)cc3)[C@@H]1C2
501 | COc1ccc(-c2ccc(C[N+](C)(C)CC3=CC[C@H]4C[C@@H]3C4(C)C)cc2)cc1OC
398 | CC1(C)[C@H]2CC=C(C[N+](C)(C)Cc3ccc(-c4cc(Cl)cc(Cl)c4)cc3)[C@@H]1C2
398 | CC1(C)[C@H]2CC=C(C[N+](C)(C)Cc3ccc(Cl)c(Cl)c3)[C@@H]1C2
398 | Cc1cccc(-c2ccc(C[N+](C)(C)CC3=CC[C@H]4C[C@@H]3C4(C)C)cc2)c1
316 | CC1(C)[C@H]2CC=C(C[N+](C)(C)Cc3ccc(-c4ccccc4)cc3)[C@@H]1C2
316 | CC1(C)[C@H]2CC=C(C[N+](C)(C)Cc3ccc(Br)cc3)[C@@H]1C2
316 | CC1(C)[C@H]2CC=C(C[N+](C)(C)Cc3ccc(-c4cccc(F)c4)cc3)[C@@H]1C2
251 | CC1(C)[C@H]2CC=C(C[N+](C)(C)Cc3ccc(-c4ccoc4)cc3)[C@@H]1C2
251 | CC1(C)[C@H]2CC=C(C[N+](C)(C)Cc3ccc(I)cc3)[C@@H]1C2
200 | CC1(C)[C@H]2CC=C(C[N+](C)(C)Cc3ccc(Cl)cc3)[C@@H]1C2
200 | CC1(C)[C@H]2CC=C(C[N+](C)(C)Cc3ccc(-c4cccc([N+](=O)[O-])c4)cc3)[C@@H]1C2
200 | CC1(C)[C@H]2CC=C(C[N+](C)(C)Cc3ccc(-c4ccsc4)cc3)[C@@H]1C2
126 | CC1(C)[C@H]2CC=C(C[N+](C)(C)Cc3ccc(-c4cccc(Cl)c4)cc3)[C@@H]1C2

What follows are compounds tested against T2, C-X-C chemokine receptor type 3 (assay: Displacement of [125I]-CXCL11 from human CXCR3 expressed in HEK293 cells). Conditions: not given.
Format: cell-based

Structure (SMILES) | Ki [nM]
CC1(C)[C@H]2CC=C(C[N+](C)(C)Cc3ccc(Cl)cc3)[C@@H]1C2 | 501
N=C(Nc1ccc(I)cc1)NC1C2CC3CC(C2)CC1C3 (stereo not drawn) | 3980
CC1(C)[C@H]2CC=C(C[N+](C)(C)Cc3ccc(-c4ccsc4)cc3)[C@@H]1C2 | 316
CC1(C)[C@H]2CC=C(C[N+](C)(C)Cc3ccc(-c4cccc(Cl)c4)cc3)[C@@H]1C2 | 316
CC1(C)[C@H]2CC=C(C[N+](C)(C)Cc3ccc(I)cc3)[C@@H]1C2 | 398
